Key:
Format in all cases: biochemical
Aurora A kinase = target: T1, Aurora A kinase (Homo sapiens, UniProt O14965); test: Aurora-A (human) kinase assay (Kemptide substrate); conditions: pIC50 is -log(IC50, M); 15 μM ATP; read-out: Kinase Inhibition pIC50 Aurora A kinase (converted)
T1 construct: purchased
T1 sequence (O14965 1-403): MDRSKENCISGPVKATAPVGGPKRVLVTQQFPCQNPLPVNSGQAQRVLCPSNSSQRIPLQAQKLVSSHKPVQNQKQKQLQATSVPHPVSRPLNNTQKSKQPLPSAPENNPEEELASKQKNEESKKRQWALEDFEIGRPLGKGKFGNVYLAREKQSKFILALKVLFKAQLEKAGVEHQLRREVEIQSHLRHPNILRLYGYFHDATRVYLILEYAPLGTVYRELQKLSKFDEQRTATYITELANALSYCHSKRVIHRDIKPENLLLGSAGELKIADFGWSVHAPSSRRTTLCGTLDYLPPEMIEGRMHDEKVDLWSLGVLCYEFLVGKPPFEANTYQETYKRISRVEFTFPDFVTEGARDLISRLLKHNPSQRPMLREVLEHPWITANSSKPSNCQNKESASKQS
Experimental: Aurora-A (human) kinase assay. This was achieved by measurement of incorporation of radioactive phosphate from ATP into Kemptide substrate (LRRASLG), upon phosphorylation by commercially obtained aurora-A kinase. Assays were performed using 96-well plates and appropriate assay buffers (8 mM MOPS, 0.2 mM EDTA, pH 7.0), into which were added 5-10 ng of active enzyme with 200 μM substrate (Kemptide). The reactions were initiated by addition of Mg/ATP mix (10 mM MgAcetate+15 μM ATP with 30-50 kBq per well of [γ-^33P]-ATP) and mixtures incubated for 40 min at room temperature. Reactions were stopped by addition of 3% phosphoric acid, followed by filtration through p81 filterplates (Whatman Polyfiltronics, Kent, UK). After washing 5 times with 75 mM aq orthophosphoric acid and once in methanol, plates were dried, scintillant added and incorporated radioactivity measured in a scintillation counter (TopCount, Packard Instruments, Pangbourne, Berks, UK). Compounds for kinase assay were made up as 10 mM stocks in DMSO and diluted into 10% DMSO in assay buffer.

CDK9/cyclin T1 = CDK9/cyclin T1 (Homo sapiens, UniProt P50750); test: CDK 9 assay (CTD peptide substrate); conditions: read-out: Kinase Inhibition pIC50 CDK9-cyclin T1 (converted)
CDK9/cyclin T1, sequence (P50750 whole entry): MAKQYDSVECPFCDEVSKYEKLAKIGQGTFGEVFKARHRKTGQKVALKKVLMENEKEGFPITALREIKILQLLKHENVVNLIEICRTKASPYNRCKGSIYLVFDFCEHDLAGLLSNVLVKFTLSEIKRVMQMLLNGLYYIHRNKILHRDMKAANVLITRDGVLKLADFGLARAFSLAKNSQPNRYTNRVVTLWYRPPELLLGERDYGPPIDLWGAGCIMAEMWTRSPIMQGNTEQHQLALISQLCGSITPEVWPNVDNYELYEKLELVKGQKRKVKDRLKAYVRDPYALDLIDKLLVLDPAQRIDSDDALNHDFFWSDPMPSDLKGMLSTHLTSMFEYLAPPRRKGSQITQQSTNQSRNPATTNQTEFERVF
CDK9/cyclin T1, sequence (O60563 whole entry partner): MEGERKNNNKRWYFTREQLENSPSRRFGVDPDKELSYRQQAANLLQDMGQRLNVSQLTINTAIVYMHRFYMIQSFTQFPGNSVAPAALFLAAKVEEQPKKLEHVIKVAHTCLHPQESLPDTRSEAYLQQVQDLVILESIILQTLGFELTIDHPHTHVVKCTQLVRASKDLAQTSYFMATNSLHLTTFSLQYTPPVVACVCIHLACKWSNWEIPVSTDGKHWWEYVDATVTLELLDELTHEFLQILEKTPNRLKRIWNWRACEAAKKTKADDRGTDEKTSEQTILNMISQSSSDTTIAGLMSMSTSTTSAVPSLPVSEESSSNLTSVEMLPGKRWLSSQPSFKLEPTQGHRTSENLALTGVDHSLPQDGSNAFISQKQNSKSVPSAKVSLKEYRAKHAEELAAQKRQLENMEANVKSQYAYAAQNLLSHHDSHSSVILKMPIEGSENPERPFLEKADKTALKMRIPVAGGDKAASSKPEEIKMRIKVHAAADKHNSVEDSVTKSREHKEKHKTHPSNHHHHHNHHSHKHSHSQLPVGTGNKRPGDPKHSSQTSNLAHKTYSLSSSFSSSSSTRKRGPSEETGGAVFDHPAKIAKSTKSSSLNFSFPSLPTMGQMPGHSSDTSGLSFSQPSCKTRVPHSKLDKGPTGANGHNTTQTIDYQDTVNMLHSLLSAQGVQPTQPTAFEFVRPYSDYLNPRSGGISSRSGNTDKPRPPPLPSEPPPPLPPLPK
Experimental: (§1) Kinase assays. The compounds of the invention above were investigated for their ability to inhibit the enzymatic activity of various protein kinases (Table 2). This was achieved by measurement of incorporation of radioactive phosphate from ATP into appropriate polypeptide substrates. Recombinant protein kinases and kinase complexes were produced or obtained commercially. Assays were performed using 96-well plates and appropriate assay buffers (typically 25 mM β-glycerophosphate, 20 mM MOPS, 5 mM EGTA, 1 mM DTT, 1 mM […], pH 7.4), into which were added 2-4 μg of active enzyme with appropriate substrates. The reactions were initiated by addition of Mg/ATP mix (15 mM MgCl2+100 μM ATP with 30-50 kBq per well of [γ-^32P]-ATP) and mixtures incubated as required at 30° C. Reactions were stopped on ice, followed by filtration through p81 filterplates or GF/C filterplates (Whatman Polyfiltronics, Kent, UK). After washing 3 times with 75 mM aq orthophosphoric acid, plates were dried, scintillant added and incorporated radioactivity measured in a scintillation counter (TopCount, Packard Instruments, Pangbourne, Berks, UK). Compounds for kinase assay were made up as 10 mM stocks in DMSO and diluted into 10% DMSO in assay buffer.
(§2) CDK 7 and 9 assays. CTD peptide substrate (biotinyl-Abx-(Tyr-Ser-Pro-Thr-Ser-Pro-Ser)4-NH2; 1-2 mg/mL) and recombinant human CDK7/cyclin H, CDK9/cyclin T1, or CDK9/cyclin K (0.5-2 μg) were incubated for 45 min at 30° C. in the presence of varying amounts of test compound in 20 mM MOPS pH 7.2, 25 mM β-glycerophosphate, 5 mM EGTA, 1 mM DTT, 1 mM sodium vanadate, 15 mM MgCl2, and 100 μM ATP (containing a trace amount of ^32PγATP) in a total volume of 25 μL in a 96-well microtiter plate. The reaction was stopped by placing the plate on ice for 2 min. Avidin (50 μg) was added to each well, and the plate was incubated at room temp for 30 min. The samples were transferred to a 96-well P81 filter plate, and washed (4×200 μL per well) with 75 mM phosphoric acid. Microscint 40 scintillation liquid (50 μL) was added to each well, and the amount of ^32P incorporation for each sample was measured using a Packard Topcount microplate scintillation counter.

CDK7/cyclin H = CDK7/cyclin H (Homo sapiens, UniProt P50613); test: CDK 7 assay (CTD peptide substrate); conditions: read-out: Kinase Inhibition pIC50 CDK7-cyclin H (converted)
CDK7/cyclin H, sequence (P50613 whole entry): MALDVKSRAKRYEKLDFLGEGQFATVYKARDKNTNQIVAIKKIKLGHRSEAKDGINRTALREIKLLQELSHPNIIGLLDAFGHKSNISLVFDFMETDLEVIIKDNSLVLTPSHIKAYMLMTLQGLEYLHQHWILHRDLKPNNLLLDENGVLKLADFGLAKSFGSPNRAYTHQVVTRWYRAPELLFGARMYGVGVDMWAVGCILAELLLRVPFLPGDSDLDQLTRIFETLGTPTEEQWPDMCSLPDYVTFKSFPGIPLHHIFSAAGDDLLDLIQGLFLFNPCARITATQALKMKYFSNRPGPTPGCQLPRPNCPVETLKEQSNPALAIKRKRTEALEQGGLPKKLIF
CDK7/cyclin H, sequence (P51946 whole entry partner): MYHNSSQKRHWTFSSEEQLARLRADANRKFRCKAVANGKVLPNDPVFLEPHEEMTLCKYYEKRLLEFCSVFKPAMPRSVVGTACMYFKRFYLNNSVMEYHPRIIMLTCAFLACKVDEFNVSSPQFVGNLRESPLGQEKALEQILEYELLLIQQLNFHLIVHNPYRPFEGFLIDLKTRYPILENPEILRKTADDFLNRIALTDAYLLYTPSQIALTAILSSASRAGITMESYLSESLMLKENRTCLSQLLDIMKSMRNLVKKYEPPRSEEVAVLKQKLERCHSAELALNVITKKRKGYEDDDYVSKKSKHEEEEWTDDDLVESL
Experimental: as §1, §2

CDK2-cycline E = CDK2-cycline E (Homo sapiens, UniProt P24941); test: Kinase assay (radioactive phosphate incorporation), CDK2-cyclin E; conditions: read-out: Kinase Inhibition pIC50 CDK2-cycline E (converted)
Experimental: as §1

| Compound | IC50 (Aurora A kinase) [nM] | IC50 (CDK9/cyclin T1) [nM] | IC50 (CDK7/cyclin H) [nM] | IC50 (CDK2-cycline E) [nM] |
| --- | --- | --- | --- | --- |
| CNc1nc(C)c(-c2ccnc(Nc3cccc(S(=O)(=O)Nc4cccc(OC)c4)c3)n2)s1 [Compound 32, N-(3-Methoxy-phenyl)-3-[4-(4-methyl-2-methylamino-thiazol-5-yl)-pyrimidin-2-ylamino]-benzenesulfonamide] | 12.6 | 2510 | 5010 |  |
| CCNc1nc(C)c(-c2ccnc(Nc3cccc(Br)c3)n2)s1 [Compound 50, (3-Bromo-phenyl)-[4-(2-ethylamino-4-methyl-thiazol-5-yl)-pyrimidin-2-yl]-amine] | 20 | 200 |  |  |
| Cc1nc(C)c(-c2ccnc(Nc3ccc(N4CCN(Cc5ccccc5)CC4)cc3)n2)s1 [Compound 114, [4-(4-Benzyl-piperazin-1-yl)-phenyl]-[4-(2,4-dimethyl-thiazol-5-yl)-pyrimidin-2-yl]-amine] | 316 | 1580 | 126 | 1260 |
| CCN(C)c1nc(C)c(-c2ccnc(Nc3ccc(N4CCOCC4)cc3)n2)s1 [Compound 120, {4-[2-(Ethyl-methyl-amino)-4-methyl-thiazol-5-yl]-pyrimidin-2-yl}-(4-morpholin-4-yl-phenyl)-amine] | 31.6 | 2000 | 3160 | 794 |
| CC(=O)N1CCN(c2ccc(Nc3nccc(-c4sc(N(C)Cc5ccccc5)nc4C)n3)cc2)CC1 [Compound 122, 1-[4-(4-{4-[2-(Benzyl-methyl-amino)-4-methyl-thiazol-5-yl]-pyrimidin-2-ylamino}-phenyl)-piperazin-1-yl]-ethanone] | 200 | 1260 | 1580 | 2000 |
| COc1cc(Nc2nccc(-c3sc(C)nc3C)n2)ccc1N1CCOCC1 [Compound 173, [4-(2,4-Dimethyl-thiazol-5-yl)-pyrimidin-2-yl]-(3-methoxy-4-morpholin-4-yl-phenyl)-amine] | 39.8 | 3160 | 3160 | 794 |
| COc1cc(Nc2nccc(-c3sc(N)nc3C)n2)ccc1N1CCOCC1 [Compound 182, [4-(2-Amino-4-methyl-thiazol-5-yl)-pyrimidin-2-yl]-(3-methoxy-4-morpholin-4-yl-phenyl)-amine] | 39.8 | 1000 | 2510 | 794 |
| COc1ccc(Nc2nccc(-c3sc(N)nc3C)n2)cc1C [Compound 185, [4-(2-Amino-4-methyl-thiazol-5-yl)-pyrimidin-2-yl]-(4-methoxy-3-methyl-phenyl)-amine] | 39.8 |  |  | 251 |
| CCNc1nc(C)c(-c2ccnc(Nc3ccc(OC)c(C)c3)n2)s1 [Compound 187, [4-(2-Ethylamino-4-methyl-thiazol-5-yl)-pyrimidin-2-yl]-(4-methoxy-3-methyl-phenyl)-amine] | 100 |  |  | 794 |
| Cc1nc(CO)sc1-c1ccnc(Nc2ccc(N3CCOCC3)cc2)n1 [Compound 188, {4-Methyl-5-[2-(4-morpholin-4-yl-phenylamino)-pyrimidin-4-yl]-thiazol-2-yl}-methanol] | 79.4 | 3980 |  | 1580 |
| CCOC(=O)N1CCN(c2ccc(Nc3nccc(-c4sc(C)nc4C)n3)cc2)CC1 [Compound 189, 4-{4-[4-(2,4-Dimethyl-thiazol-5-yl)-pyrimidin-2-ylamino]-phenyl}-piperazine-1-carboxylic acid ethyl ester] | 100 | 2000 |  | 2000 |
| Cc1nc(C)c(-c2ccnc(Nc3ccc(N4CCN(CC(=O)NC(C)C)CC4)cc3)n2)s1 [Compound 190, 2-(4-{4-[4-(2,4-Dimethyl-thiazol-5-yl)-pyrimidin-2-ylamino]-phenyl}-piperazin-1-yl)-N-isopropyl-acetamide] | 63.1 | 2510 | 7940 | 1000 |
| Cc1nc(C)c(-c2ccnc(Nc3ccc(N4CCCCC4)cc3)n2)s1 [Compound 193, [4-(2,4-Dimethyl-thiazol-5-yl)-pyrimidin-2-yl]-(4-piperidin-1-yl-phenyl)-amine] | 200 | 3980 |  |  |
| CCNc1nc(C)c(-c2ccnc(Nc3ccc(N4CCCCC4)cc3)n2)s1 [Compound 194, [4-(2-Ethylamino-4-methyl-thiazol-5-yl)-pyrimidin-2-yl]-(4-piperidin-1-yl-phenyl)-amine] | 79.4 |  |  | 794 |
| Cc1nc(N)sc1-c1ccnc(Nc2ccc(N3CCCCC3)cc2)n1 [Compound 195, [4-(2-Amino-4-methyl-thiazol-5-yl)-pyrimidin-2-yl]-(4-piperidin-1-yl-phenyl)-amine] | 39.8 | 398 | 1580 | 794 |
| CCNc1nc(C)c(-c2ccnc(Nc3ccc(N4CCN(C)CC4)cc3)n2)s1 [Compound 196, [4-(2-Ethylamino-4-methyl-thiazol-5-yl)-pyrimidin-2-yl]-[4-(4-methyl-piperazin-1-yl)-phenyl]-amine] | 200 |  |  | 631 |
| Cc1nc(CO)sc1-c1ccnc(Nc2ccc(N3CCCCC3)cc2)n1 [Compound 197, {4-Methyl-5-[2-(4-piperidin-1-yl-phenylamino)-pyrimidin-4-yl]-thiazol-2-yl}-methanol] | 100 | 3160 | 7940 | 2510 |
| COc1cc(Nc2nccc(-c3sc(CO)nc3C)n2)ccc1N1CCOCC1 [Compound 200, {5-[2-(3-Methoxy-4-morpholin-4-yl-phenylamino)-pyrimidin-4-yl]-4-methyl-thiazol-2-yl}-methanol] | 39.8 |  |  | 2000 |
| Cc1nc(N)sc1-c1ccnc(Nc2ccc(N3CCOCC3)c(C(N)=O)c2)n1 [Compound 211, 5-[4-(2-Amino-4-methyl-thiazol-5-yl)-pyrimidin-2-ylamino]-2-morpholin-4-yl-benzamide] | 158 | 2000 | 6310 | 2510 |
| CCNc1nc(C)c(-c2ccnc(Nc3ccc(N4CCOCC4)c(C(N)=O)c3)n2)s1 [Compound 212, 5-[4-(2-Ethylamino-4-methyl-thiazol-5-yl)-pyrimidin-2-ylamino]-2-morpholin-4-yl-benzamide] | 63.1 | 1260 |  | 1000 |
| Cc1nc(C)c(-c2ccnc(Nc3ccc(N4CCN(C(=O)C5CC5)CC4)cc3)n2)s1 [Compound 213, Cyclopropyl-(4-{4-[4-(2,4-dimethyl-thiazol-5-yl)-pyrimidin-2-ylamino]-phenyl}-piperazin-1-yl)-methanone] | 39.8 | 2510 |  | 1580 |
| COc1ccc(Nc2nccc(-c3sc(C)nc3C)n2)cc1CN1CCOCC1 [Compound 215, [4-(2,4-Dimethyl-thiazol-5-yl)-pyrimidin-2-yl]-(4-methoxy-3-morpholin-4-ylmethyl-phenyl)-amine] | 200 |  |  | 1580 |

From patent US20090137572A1, “2-substituted-4-heteroaryl-pyrimidines useful for the treatment of proliferative disorders” (priority 2004, published 2009)
